What was measured:
[1] = test system: SH-Sy5y cells; assay: Neuritic sprouting and neuronal differentiation in SH-Sy5y cells; assay type: cell-based
From the text: (§1) Neuritic sprouting and neuronal differentiation were induced in PNET2 and SH-Sy5y cells by insulin, PMA, or RA stimulation. […] Thus, expression of the immature or fetal forms of NTP are regulated by mechanisms and growth factors distinct from those involved in modulating expression of the 21 kD and 26 kD NTP molecules. Therefore, expression of fetal NTP molecules/genes can be mediated through the IRS-1 cascade, whereas expression of adult brain/AD-associated NTP genes can be regulated mainly through protein kinase C pathways.

[2] = test system: PNET2 cells; assay: Neuritic sprouting and neuronal differentiation in PNET2 cells; assay type: cell-based; conditions: for NTP species expression associated with neuritic growth/sprouting: PNET2 and SH-Sy5y cells (not separated); for neuritic sprouting and neuronal differentiation: PNET2 cells
From the text: as §1

[3] = test system: mice; conditions: 13 month old mice, administered directly to the brains; cited from earlier work
[4] = test system: PNET2 cells; assay: Insulin stimulated differentiation and NTP expression in PNET2 cells; assay type: cell-based
[5] = test system: PNET1 cells; assay: Insulin responsiveness, NTP modulation and signal transduction in PNET1 cells; assay type: cell-based
From the text: Insulin is an important mediator of growth and differentiation in CNS neurons.
Correspondingly, the insulin-stimulated association between PI3 kinase and phosphorylated IRS-1 was also impaired in PNET1 cells. In essence, impaired insulin-mediated tyrosyl phosphorylation of IRS-1 in PNET1 cells halted activation of the insulin signal transduction cascade, and subsequent events leading to modulated gene (NTP) expression. […] The results were confirmed by absent association between PI3 kinase and IRS-1-PY in PNET1 cells after insulin stimulation.

| Compound | neuritic sprouting and neuronal differentiation [1] | NTP species expression associated with neuritic growth/sprouting [2] | neuritic sprouting and neuronal differentiation [2] | animals showing a delay of about two months in any memory deficit [3] | animals that never develop a memory deficit [3] | synthesis and steady state levels of all five NTP species ([4]; following the transient increases) | levels of the 39 kD, 18 kD and 15 kD NTP species ([4]; insulin stimulated differentiation) | phosphorylation of IRS-1, up-regulation of NTP, neuronal differentiation ([4]; insulin stimulation) | induction of differentiation [5] | insulin modulation of NTP [5] | insulin receptor phosphorylation [5] | insulin-mediated tyrosyl phosphorylation of IRS-1 [5] | insulin-stimulated association between PI3 kinase and phosphorylated IRS-1 [5] |
| --- | --- | --- | --- | --- | --- | --- | --- | --- | --- | --- | --- | --- | --- |
| CCCCCCCCCCCCCC(=O)O[C@@H]1[C@@H](C)[C@@]2(O)[C@@H](C=C(CO)C[C@]3(O)C(=O)C(C)=C[C@@H]23)[C@@H]2C(C)(C)[C@]12OC(C)=O [PMA] | induced | modulated expression of the 21 kD and 26 kD NTP species | induced |  |  |  |  |  |  |  |  |  |  |
| O=C(CCn1cnc2c(=O)[nH]cnc21)Nc1ccc(C(=O)[O-])cc1.[K+] [AIT-082] |  |  |  | about 50% | 50% |  |  |  |  |  |  |  |  |
| Insulin: Insulin, an important mediator of growth and differentiation in CNS neurons | induced | increased expression of the fetal brain and PNET-dominant forms of NTP (15 kD and 18 kD) | induced |  |  | sustained increases | rapid (within 10 minutes) but transient increases | responded to insulin stimulation with phosphorylation of IRS-1, up-regulation of NTP, and neuronal differentiation | failure of insulin to induce differentiation | absent insulin modulation of NTP | normal insulin receptor phosphorylation | impaired | also impaired |
| CC1=C(/C=C/C(C)=C/C=C/C(C)=C/C(=O)O)C(C)(C)CCC1 [RA] | induced | modulated expression of the 21 kD and 26 kD NTP species | induced |  |  |  |  |  |  |  |  |  |  |
